Measured values from patent publication US4360458A, “Antitumor antibacterial agents” (priority 1980, dated 1982).
≈ marks a conversion by molar mass, not a printed value.

What was measured:
lysogenic bacterium = experiment: Prophage induction in lysogenic bacterium (ILB); type: cell-based; settings: up to a concentration of 100 mcg./ml
Experimental: The activity of prophage induction in lysogenic bacterium (ILB) was determined for BBM-928 components.

[1] = Intraperitoneal LD50, method of Van der Waerden
B. anthracis A9504 = type: cell-based; settings: nutrient agar pH 7, overnight 37° C.
M. flavus D12 = experiment: MIC, serial agar dilution method; type: cell-based; settings: nutrient agar pH 7, overnight 37° C.
Experimental: (§1) Antimicrobial activity of BBM-928 components was determined against a variety of bacteria and fungi by serial agar dilution method in nutrient agar at pH 7 using Steer's multi-inoculating apparatus. The inoculum size was standardized to apply a 0.0025-ml aliquot of test organisms containing approximately 10^4 cell/ml for all bacteria and fungi except acid-fast bacteria for which a 10^6 cell/ml suspension was used.

C. xerosis 53K-1 = experiment: MIC, serial agar dilution method; type: cell-based; settings: nutrient agar pH 7, overnight 37° C.
Experimental: as §1

A. faecalis ATCC 8750 = experiment: MIC, serial agar dilution method; type: cell-based; settings: nutrient agar pH 7, overnight 37° C.
Experimental: as §1

C. arbicans IAM 4888 = experiment: MIC, serial agar dilution method; type: cell-based; settings: nutrient agar pH 7, overnight 37° C.
Experimental: as §1

S. aureus 209P = experiment: MIC, serial agar dilution method; type: cell-based; settings: nutrient agar pH 7, overnight 37° C.
Experimental: as §1

S. pyogenes S-23 = experiment: MIC, serial agar dilution method; type: cell-based; settings: nutrient agar pH 7, overnight 37° C.
Experimental: as §1

C. neoformans = experiment: MIC, serial agar dilution method; type: cell-based; settings: nutrient agar pH 7, overnight 37° C.
Experimental: as §1

P. morganii A9553 = experiment: MIC, serial agar dilution method; type: cell-based; settings: nutrient agar pH 7, overnight 37° C.
Experimental: as §1

P. aeruginosa A9930 = experiment: MIC, serial agar dilution method; type: cell-based; settings: nutrient agar pH 7, overnight 37° C.
Experimental: as §1

M. phlei D88 = experiment: MIC, serial agar dilution method; type: cell-based; settings: nutrient agar pH 7, overnight 37° C., 10^6 cell/ml inoculum
Experimental: as §1

B. subtilis PCI 219 = experiment: MIC, serial agar dilution method; type: cell-based; settings: nutrient agar pH 7, overnight 37° C.
Experimental: as §1

B. megaterium D2 = experiment: MIC, serial agar dilution method; type: cell-based; settings: nutrient agar pH 7, overnight 37° C.
Experimental: as §1

S. marcescens A20019 = experiment: MIC, serial agar dilution method; type: cell-based; settings: nutrient agar pH 7, overnight 37° C.
Experimental: as §1

M. smegmatis 607 D87 = experiment: MIC, serial agar dilution method; type: cell-based; settings: nutrient agar pH 7, overnight 37° C., 10^6 cell/ml inoculum
Experimental: as §1

E. coli NIHJ = experiment: MIC, serial agar dilution method; type: cell-based; settings: nutrient agar pH 7, overnight 37° C.
Experimental: as §1

P. vulgaris A9436 = experiment: MIC, serial agar dilution method; type: cell-based; settings: nutrient agar pH 7, overnight 37° C.
Experimental: as §1

K. pneumoniae D-11 = experiment: MIC, serial agar dilution method; type: cell-based; settings: nutrient agar pH 7, overnight 37° C.
Experimental: as §1

S. lutea PCI 1001 = experiment: MIC, serial agar dilution method; type: cell-based; settings: nutrient agar pH 7, overnight 37° C.
Experimental: as §1

P. mirabilis A9554 = experiment: MIC, serial agar dilution method; type: cell-based; settings: nutrient agar pH 7, overnight 37° C.
Experimental: as §1

[2] = test system: Lewis Lung (LL) carcinoma; experiment: Antitumor activity, intraperitoneally implanted tumor; type: in vivo, mouse
Experimental: (§2) Comparative testing of BBM-928 components A, B, C and D with mitomycin C for antitumor activity was carried out with the intraperitoneally implanted tumors: P388 leukemia, L1210 leukemia, B16 melamoma, Lewis Lung (LL) carcinoma, and sarcoma 180 ascites (S180). […] By varying dosage, the minimum effective dose (MED) was determined which provided a median survival time value for the treated animals at least 1.25 times greater than a control group. This level of activity is considered to be a measure of significant antitumor activity. […] Expt. Path.

L1210 leukemia = experiment: as above; type: in vivo, mouse
Experimental: as §2

P388 leukemia = experiment: as above; type: in vivo, mouse
Experimental: as §2

B16 melamoma = experiment: as above; type: in vivo, mouse
Experimental: as §2

[3] = test system: sarcoma 180 ascites (S180); experiment: as above; type: in vivo, mouse
Experimental: as §2

[4] = daily treatments from day 1 to day 9
[5] = single treatment on day 1, median survival time at least 1.25 times control

COc1ccc2nc(C(=O)N[C@@H]3COC(=O)[C@H](C(C)(C)O)N(C)C(=O)CN(C)C(=O)CNC(=O)[C@@H]4[C@@H](OC(C)=O)CC=NN4C(=O)[C@H](NC(=O)c4nc5ccc(OC)cc5cc4O)COC(=O)[C@H](C(C)(C)O)N(C)C(=O)CN(C)C(=O)CNC(=O)[C@@H]4[C@@H](OC(C)=O)CC=NN4C3=O)c(O)cc2c1 [BBM-928A]
ILB activity (prophage induction in lysogenic bacterium) (lysogenic bacterium): No significant ILB activity | LD50, i.p. [1, 4]: 0.013 mg/kg/day | LD50, i.p. ([1]; single treatment on day 1): 0.13 mg/kg/day | MIC (B. anthracis A9504): 6.3 µg/mL (≈ 4.41 µM) | MIC (M. flavus D12): 12.5 µg/mL (≈ 8.76 µM) | MIC (C. xerosis 53K-1): 25 µg/mL (≈ 17.5 µM) | MIC (A. faecalis ATCC 8750): > 100 µg/mL | MIC (C. arbicans IAM 4888): > 100 µg/mL | MIC (S. aureus 209P): 12.5 µg/mL (≈ 8.76 µM) | MIC (S. pyogenes S-23): 6.3 µg/mL (≈ 4.41 µM) | MIC (C. neoformans): 100 µg/mL (≈ 70.1 µM) | MIC (P. morganii A9553): > 100 µg/mL | MIC (P. aeruginosa A9930): > 100 µg/mL | MIC (M. phlei D88): 12.5 µg/mL (≈ 8.76 µM) | MIC (B. subtilis PCI 219): 25 µg/mL (≈ 17.5 µM) | MIC (B. megaterium D2): 25 µg/mL (≈ 17.5 µM) | MIC (S. marcescens A20019): > 100 µg/mL | MIC (M. smegmatis 607 D87): 25 µg/mL (≈ 17.5 µM) | MIC (E. coli NIHJ): > 100 µg/mL | MIC (P. vulgaris A9436): > 100 µg/mL | MIC (K. pneumoniae D-11): > 100 µg/mL | MIC (S. lutea PCI 1001): 6.3 µg/mL (≈ 4.41 µM) | MIC (P. mirabilis A9554): > 100 µg/mL | Activity Ratio (BBM-928A vs. Mitomycin C) [2, 4]: 100 | Minimum Effective Dose (MED) [2, 4]: 0.003 mg/kg/day | Activity Ratio (BBM-928A vs. Mitomycin C) ([2]; single treatment on day 1): 10 | Minimum Effective Dose (MED) [2, 5]: 0.03 mg/kg/day | Activity Ratio (BBM-928A vs. Mitomycin C) (L1210 leukemia; [4]): 100 | Minimum Effective Dose (MED) (L1210 leukemia; [4]): 0.003 mg/kg/day | Minimum Effective Dose (MED) (L1210 leukemia; [5]): > 0.1 mg/kg/day | Activity Ratio (BBM-928A vs. Mitomycin C) (P388 leukemia; [4]): 100 | Minimum Effective Dose (MED) (P388 leukemia; [4]): 0.001 mg/kg/day | Activity Ratio (BBM-928A vs. Mitomycin C) (P388 leukemia; single treatment on day 1): 30 | Minimum Effective Dose (MED) (P388 leukemia; [5]): 0.003 mg/kg/day | Activity Ratio (BBM-928A vs. Mitomycin C) (B16 melamoma; [4]): 100 | Minimum Effective Dose (MED) (B16 melamoma; [4]): 0.003 mg/kg/day | Activity Ratio (BBM-928A vs. Mitomycin C) (B16 melamoma; single treatment on day 1): 300 | Minimum Effective Dose (MED) (B16 melamoma; [5]): 0.003 mg/kg/day | Activity Ratio (BBM-928A vs. Mitomycin C) [3, 4]: 100 | Minimum Effective Dose (MED) [3, 4]: 0.0001 mg/kg/day | Activity Ratio (BBM-928A vs. Mitomycin C) ([3]; single treatment on day 1): 100 | Minimum Effective Dose (MED) [3, 5]: 0.003 mg/kg/day

COc1ccc2nc(C(=O)N[C@@H]3COC(=O)[C@H](C(C)(C)O)N(C)C(=O)CN(C)C(=O)CNC(=O)[C@@H]4[C@@H](O)CC=NN4C(=O)[C@H](NC(=O)c4nc5ccc(OC)cc5cc4O)COC(=O)[C@H](C(C)(C)O)N(C)C(=O)CN(C)C(=O)CNC(=O)[C@@H]4[C@@H](OC(C)=O)CC=NN4C3=O)c(O)cc2c1 [BBM-928B]
ILB activity (prophage induction in lysogenic bacterium) (lysogenic bacterium): No significant ILB activity | LD50, i.p. ([1]; single treatment on day 1): 0.18 mg/kg/day | MIC (B. anthracis A9504): 12.5 µg/mL (≈ 9.02 µM) | MIC (M. flavus D12): 25 µg/mL (≈ 18 µM) | MIC (C. xerosis 53K-1): 50 µg/mL (≈ 36.1 µM) | MIC (A. faecalis ATCC 8750): > 100 µg/mL | MIC (C. arbicans IAM 4888): > 100 µg/mL | MIC (S. aureus 209P): 25 µg/mL (≈ 18 µM) | MIC (S. pyogenes S-23): 12.5 µg/mL (≈ 9.02 µM) | MIC (C. neoformans): > 100 µg/mL | MIC (P. morganii A9553): > 100 µg/mL | MIC (P. aeruginosa A9930): > 100 µg/mL | MIC (M. phlei D88): 12.5 µg/mL (≈ 9.02 µM) | MIC (B. subtilis PCI 219): 25 µg/mL (≈ 18 µM) | MIC (B. megaterium D2): 25 µg/mL (≈ 18 µM) | MIC (S. marcescens A20019): > 100 µg/mL | MIC (M. smegmatis 607 D87): 25 µg/mL (≈ 18 µM) | MIC (E. coli NIHJ): > 100 µg/mL | MIC (P. vulgaris A9436): > 100 µg/mL | MIC (K. pneumoniae D-11): > 100 µg/mL | MIC (S. lutea PCI 1001): 12.5 µg/mL (≈ 9.02 µM) | MIC (P. mirabilis A9554): > 100 µg/mL | Minimum Effective Dose (MED) (P388 leukemia; [5]): 0.1 mg/kg/day

COc1ccc2nc(C(=O)N[C@@H]3COC(=O)[C@H](C(C)(C)O)N(C)C(=O)CN(C)C(=O)CNC(=O)[C@@H]4[C@@H](O)CC=NN4C(=O)[C@H](NC(=O)c4nc5ccc(OC)cc5cc4O)COC(=O)[C@H](C(C)(C)O)N(C)C(=O)CN(C)C(=O)CNC(=O)[C@@H]4[C@@H](O)CC=NN4C3=O)c(O)cc2c1 [BBM-928C]
ILB activity (prophage induction in lysogenic bacterium) (lysogenic bacterium): No significant ILB activity | LD50, i.p. ([1]; single treatment on day 1): 0.81 mg/kg/day | MIC (B. anthracis A9504): 25 µg/mL (≈ 18.6 µM) | MIC (M. flavus D12): 50 µg/mL (≈ 37.2 µM) | MIC (C. xerosis 53K-1): > 100 µg/mL | MIC (A. faecalis ATCC 8750): > 100 µg/mL | MIC (C. arbicans IAM 4888): > 100 µg/mL | MIC (S. aureus 209P): 50 µg/mL (≈ 37.2 µM) | MIC (S. pyogenes S-23): 25 µg/mL (≈ 18.6 µM) | MIC (C. neoformans): 100 µg/mL (≈ 74.4 µM) | MIC (P. morganii A9553): > 100 µg/mL | MIC (P. aeruginosa A9930): > 100 µg/mL | MIC (M. phlei D88): 12.5 µg/mL (≈ 9.31 µM) | MIC (B. subtilis PCI 219): 100 µg/mL (≈ 74.4 µM) | MIC (B. megaterium D2): 50 µg/mL (≈ 37.2 µM) | MIC (S. marcescens A20019): > 100 µg/mL | MIC (M. smegmatis 607 D87): 25 µg/mL (≈ 18.6 µM) | MIC (E. coli NIHJ): > 100 µg/mL | MIC (P. vulgaris A9436): > 100 µg/mL | MIC (K. pneumoniae D-11): > 100 µg/mL | MIC (S. lutea PCI 1001): 50 µg/mL (≈ 37.2 µM) | MIC (P. mirabilis A9554): > 100 µg/mL

CO[C@@]12[C@H](COC(N)=O)C3=C(C(=O)C(C)=C(N)C3=O)N1C[C@@H]1N[C@@H]12 [Mitomycin C, reference compound]
Minimum Effective Dose (MED) [2, 4]: 0.3 mg/kg/day | Minimum Effective Dose (MED) [2, 5]: 0.3 mg/kg/day | Minimum Effective Dose (MED) (L1210 leukemia; [4]): 0.3 mg/kg/day | Minimum Effective Dose (MED) (L1210 leukemia; [5]): 3 mg/kg/day | Minimum Effective Dose (MED) (P388 leukemia; [4]): 0.1 mg/kg/day | Minimum Effective Dose (MED) (P388 leukemia; [5]): 0.1 mg/kg/day | Minimum Effective Dose (MED) (B16 melamoma; [4]): 0.3 mg/kg/day | Minimum Effective Dose (MED) (B16 melamoma; [5]): 1 mg/kg/day | Minimum Effective Dose (MED) [3, 4]: 0.03 mg/kg/day | Minimum Effective Dose (MED) [3, 5]: 0.3 mg/kg/day
